Our source for the EC50 values is article PMC8878317, “Chemogenomics identifies acetyl-coenzyme A synthetase as a target for malaria treatment and prevention” (Cell Chemical Biology, 2022).

Common to all, as to type: cell-based
Assay [1] concerns P. falciparum Dd2:T648M (CRISPR edited PfAcAS). The assay is described as follows: Blood-stage dose-response assay, CRISPR-edited Dd2:T648M line. The settings on record: Plasmodium falciparum, mean ± SD, n bioreplicates. The method, then:
(§1) For in vitro–selected lines, drug susceptibility was measured by SYBR Green I–based assay ([Johnson et al., 2007]; [Smilkstein et al., 2004]). Ring-stage parasites were cultured for 72 hr at 1% hematocrit and 1% starting parasitemia in 384-well black clear-bottom plates containing test compounds plated in triplicate in 12-point serial dilutions. Lysis buffer (0.16% w/v saponin, 1.6% Triton X-100, 5 mM EDTA, and 20 mM Tris-HCl, pH 7.4) with SYBR Green I fluorescent dye (Invitrogen) was added, and fluorescence readings were taken (excitation at 494 nm, emission at 530 nm). Alternatively, Dd2-B2 ring-stage cultures at 0.3% parasitemia and 1% hematocrit were exposed for 72 hr to a range of ten drug concentrations that were 2-fold serially diluted in duplicates along with drug-free controls. Parasite survival was assessed by flow cytometry on an Accuri C6 (BD Biosciences) using SYBR Green and MitoTracker Deep Red FM (Life Technologies) as nucleic acid stain and vital dyes respectively. EC50 values were calculated using a nonlinear regression curve fit in Prism Software version 8 (GraphPad).
(§2) Mutant PfAcAS-A597V and PfAcAS-T648M parasites were generated using CRISPR/Cas9. The guide RNAs for PfAcAS-A597V (5′-[…]-3′; 5′-[…]-3′) and for PfAcAS-T648M (5′-[…]-3′) were designed using Benchling (https://benchling.com/) to targeting sites in PfAcAS that were 6-14 bp upstream of the A597 codon and 6 bp downstream of the T648 codon respectively. Complementary oligos encoding the gRNA sequences (5′- tatt[…]-3’ / 5’-aaac[…]-3’; 5’-tatt[…]-3’ / 5’-aaac[…]-3’ and 5’- tattg[…]-3’ / 5’-aaac[…]c-3’ ) were phosphorylated using T4 polynucleotide kinase and annealed (95°C for 5 min, then step down of 5°C/min to 25°C) prior to ligation into the BbsI-digested pDC2-coCas9-U6.2-hDHFR plasmid ([Lim et al., 2016]). The donor template for PfAcAS-A597V was synthesized (ThermoFisher) as a 700 bp Genestring fragment spanning position 1468 to 2168 of the PfAcAS gene, and the donor for PfAcAS-T648M synthesized as a 829 bp fragment spanning position 1468 to 2297 and inserted into the AatII/EcoRI sites of the pDC2-coCas9-gRNA-hDHFR plasmid by Gibson assembly. Ring-stage parasites (Dd2) at 5% parasitemia were transfected by electroporation (BioRad Gene Pulser II at 0.310 kV and 950 μF) with 50 μg of each plasmid (plasmid 1: pDC2-coCas9-AcAS-A597V-gRNA1-hDHFR, plasmid 2: pDC2-coCas9-gRNA2-hDHFR, or plasmid 3: pDC2-coCas9-AcAS-T648M-gRNA1-hDHFR), and parasites selected for 10 days with 2.5 nM WR99210 (Jacobus Pharmaceuticals), followed by removal of drug pressure. After confirmation of editing in the bulk culture, clones were isolated by serial limiting dilution and confirmed by Sanger sequencing after PCR amplification from genomic DNA using forward primer 5′-[…]-3′ and reverse primer 5′-[…]-3′ (for A597V) and 5′-[…]-3′ (for T648M).

The test system of a further assay is P. falciparum Dd2-B2. The assay is described as follows: Blood-stage dose-response assay (72 hr), Dd2 / Dd2-B2 parent. The settings on record: Plasmodium falciparum. The method, then: (§3) The 3D7-A10 clone has been used in previous in vitro drug selection and sequencing efforts ([Cowell et al., 2018]). Dd2 parasites were obtained from T. Wellems (NIAID, NIH). Dd2-B2 is a genetically homogeneous line that was cloned from Dd2 by limiting dilution in the Fidock lab. Parasite strains were cultured in 3-5% human O+ hematocrit in RPMI 1640 (Life Technologies) supplemented with 28 mM NaHCO3, 25 mM HEPES, and hypoxanthine ([…]). Depending on the parasite line, the media either contained gentamycin (25 μg/mL), or no antibiotic and was additionally supplemented with 0.5% AlbuMAX II (Life Technologies) and/or O+ human serum (heat inactivated and pooled). Blood and serum products were obtained from Interstate Blood Bank. Cultures were maintained at 37°C in 1.1% O2, 4% CO2, and 95% N2. Parasite populations were synchronized by 5% sorbitol treatment ([Lambros and Vanderberg, 1979]).
as §1

For another assay, the system named is P. falciparum 3D7-A10. The assay is described as follows: Blood-stage dose-response assay (SYBR Green I, 72 hr), 3D7 / 3D7-A10 parent. The settings on record: Plasmodium falciparum. The method, then: as §3, §1
For assay [2], the system named is P. falciparum Dd2:A597V (CRISPR edited PfAcAS). The assay is described as follows: Blood-stage dose-response assay, CRISPR-edited Dd2:A597V line. The settings on record: Plasmodium falciparum, mean ± SD, n bioreplicates. The procedure:
as §1, §2

The mark [3] stands for this setting: DD2, read-out: Dd2-B2 parent EC50 ± SD (nM).
Where [4] appears, read: mean ± SD, n bioreplicates, read-out: 3D7-A10 parent EC50 ± SD.

Like-named read-outs stand apart in the source and are kept apart here.

As for `O=C1C(O)=C([C@H]2CC[C@H](c3ccc(Cl)cc3)CC2)C(=O)c2ccccc21` [Atovaquone, reference compound], the EC50 in assay [1] was 0.00069 ± 0.00038 µM; in the assay on P. falciparum Dd2-B2 (setting [3]) it was 0.3 ± 0.13 nM; in the assay with P. falciparum 3D7-A10 (setting [4]) it was 0.00042 ± 5e-05 µM; in assay [2], 0.00055 ± 0.00035 µM.
In the case of `CCN(CC)S(=O)(=O)c1ccc(Cl)c(C(=O)Nc2ccc3nc(C)sc3c2)c1` [MMV019721], the EC50 came to 8.2 µM in assay [1]; 400 ± 72 nM in the assay on P. falciparum Dd2-B2 (setting [3]); 400 ± 72 nM with P. falciparum Dd2-B2 (DD2, read-out: P. falciparum Dd2 EC50); 400 ± 72 nM with P. falciparum Dd2-B2 (DD2, read-out: mean EC50 (nM) ± SD (n)); 0.46 ± 0.1 µM with P. falciparum 3D7-A10 (blood-stage parasites in vitro, read-out: P. falciparum 3D7 half-maximal effective concentration [EC50]); 0.4 ± 0.058 µM in the assay on P. falciparum 3D7-A10 (setting [4]). Moreover, the EC50 in assay [2] was 6.2 µM.
On to `O=C(NNC(=O)c1csnn1)c1ccc(Cl)cc1` [MMV084978], for which the EC50 in assay [1] came out at 12 µM; in the assay on P. falciparum Dd2-B2 (setting [3]), 150 ± 36 nM; in the assay with P. falciparum 3D7-A10 (setting [4]), 0.11 ± 0.028 µM; in assay [2] it was 43 µM.
